Values after ≈ are worked out from the molar mass of the structure shown. Like-named read-outs stand apart in the source and are kept apart here.
Legend:
[1] = test system: HCT-116; test: HCT-116 human colon cancer cell cytotoxicity assay
[2] = test system: Candida albicans; test: Antifungal screening, Candida albicans; type: cell-based; conditions: antifungal activity
[3] = test system: Enterococcus faecium (vanomycin resistant); test: Antibacterial screening, Enterococcus faecium; type: cell-based
[4] = Solubility in organic solvents; conditions: CHCl3, methanol, and other polar solvents like DMSO, acetone, acetonitrile, benzene, pyridine, N,N-dimethyformamide
[5] = test system: Candida albicans (amphoterocin B resistant); test: Antifungal screening, Candida albicans (amphoterocin B resistant); type: cell-based
[6] = test system: Staphylococcus aureus (methecillin resistant); test: Antibacterial screening, Staphylococcus aureus; type: cell-based
[7] = HCT-116, read-out: IC50, cytotoxic activity against human colon cancer cells

SMILES	IC50 [1, 7]	IC50 [2]	antibacterial activity, Enterococcus faecium [3]	IC50 ([3]; Enterococcus faecium)	solubility [4]	IC50 ([1]; HCT-116, read-out: IC50, HCT-116)	IC50 [5]	antibacterial activity, Staphylococcus aureus [6]	IC50 ([6]; Staphylococcus aureus)
COc1cc([C@@H]2c3cc4c(cc3[C@@H](O[C@@H]3O[C@@H]5CO[C@@H](C)O[C@H]5[C@H](O)[C@H]3O)[C@H]3COC(=O)[C@H]23)OCO4)cc(OC)c1O [etoposide, reference compound]	0.828 µg/mL (≈ 1.41 µM)								
C[C@@]12OC(=O)[C@]1([C@@H](O)[C@@H]1C=CCCC1)NC(=O)[C@@H]2CCCl [Salinosporamide A]	0.011 µg/mL (≈ 0.0351 µM)	250 µg/mL (≈ 797 µM)	no antibacterial activity	> 250 µg/mL	soluble	0.011 µg/mL (≈ 0.0351 µM)	> 250 µg/mL	no antibacterial activity	> 250 µg/mL

Source: patent US10912764B2, “Salinosporamides and methods of use thereof” (The Regents of the University of California, priority 2002, dated 2021)
